What was measured:
[1] = target: GDP-bound HRAS wild-type protein (Homo sapiens, UniProt P01112); assay: Binding to HRAS by surface plasmon resonance (SPR), Single Cycle Kinetics; conditions: SPR, GDP-bound HRAS wild-type protein vs GDP-bound KRAS wild-type protein
[2] = system: human lung cancer strain NCI-H441;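 also: cell proliferation inhibition after four days measured by CellTiter-Glo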
[3] = target: GDP-bound NRAS wild-type protein (Homo sapiens, UniProt P01111); assay: Binding to NRAS by surface plasmon resonance (SPR), Single Cycle Kinetics; conditions: SPR, GDP-bound NRAS wild-type protein vs GDP-bound KRAS wild-type protein
[4] = target: GDP-bound KRAS wild-type protein (Homo sapiens, UniProt P01116); assay: Binding to KRAS by surface plasmon resonance (SPR), Single Cycle Kinetics; conditions: SPR, Single Cycle Kinetics, GDP-bound KRAS wild-type protein; read-out: KRAS KD
GDP-bound KRAS wild-type protein, sequence (P01116 whole entry): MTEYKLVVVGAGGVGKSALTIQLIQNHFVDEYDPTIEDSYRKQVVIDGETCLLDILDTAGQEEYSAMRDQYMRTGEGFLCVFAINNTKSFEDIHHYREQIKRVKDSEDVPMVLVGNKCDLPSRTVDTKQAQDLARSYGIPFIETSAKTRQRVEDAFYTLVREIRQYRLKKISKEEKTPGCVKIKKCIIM

GDP-bound HRAS wild-type protein, sequence (P01112 whole entry): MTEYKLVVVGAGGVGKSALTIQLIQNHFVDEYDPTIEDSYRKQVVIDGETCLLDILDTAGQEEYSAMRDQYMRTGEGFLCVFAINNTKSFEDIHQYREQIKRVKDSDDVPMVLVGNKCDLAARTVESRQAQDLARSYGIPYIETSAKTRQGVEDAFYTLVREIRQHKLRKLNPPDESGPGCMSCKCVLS
GDP-bound NRAS wild-type protein, sequence (P01111 whole entry): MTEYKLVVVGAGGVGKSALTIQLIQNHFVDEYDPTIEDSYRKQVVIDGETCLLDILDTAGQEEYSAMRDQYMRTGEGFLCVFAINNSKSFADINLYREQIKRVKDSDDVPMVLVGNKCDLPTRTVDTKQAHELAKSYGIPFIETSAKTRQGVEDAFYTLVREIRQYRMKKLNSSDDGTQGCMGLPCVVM

Row | Structure (SMILES) | HRAS/KRAS (ratio of KD value for HRAS to KD value for KRAS) [1] | IC50 [2] [nM] | NRAS/KRAS (ratio of KD value for NRAS to KD value for KRAS) [3] | Kd [4] [nM]
1 | CC[C@H](C)[C@@H]1NC(=O)[C@H](CC)N(C)C(=O)C[C@@H](C(=O)N(C)C)N(C)C(=O)[C@H](C2CCCC2)N(C)C(=O)C2(CCC2)NC(=O)[C@@H]2C[C@@H](OC)CN2C(=O)[C@H](CCc2cc(F)c(C(F)(F)F)c(F)c2)NC(=O)CN(C)C(=O)[C@H](Cc2ccc(C(F)(F)F)cc2)N2CC/C=C\C[C@@H](C2=O)N(C)C(=O)CN(C)C1=O [PP1130, (2S,8S,12R,14S,20S,23S,27S,30S,36S,38Z)-20-cyclopentyl-8-[2-[3,5-difluoro-4-(trifluoromethyl)phenyl]ethyl]-27-ethyl-12-methoxy-N,N,4,19,22,26,32,35-octamethyl-30-[(1S)-1-methylpropyl]-3,6,9,15,18,21,25,28,31,34,42-undecaoxo-2-[[4-(trifluoromethyl)phenyl]methyl]spiro[1,4,7,10,16,19,22,26,29,32,35-undecazatricyclo[34.5.1.0^10,14]dotetracont-38-ene-17,1′-cyclobutane]-23-carboxamide] | B (a compound having 3 or more and less than 10 is denoted as B) | 19.6 | A (a compound having 10 or more and less than 20 is denoted as A) | 0.035
2 | CC[C@H](C)[C@@H]1NC(=O)[C@H](CC)N(C)C(=O)C[C@@H](C(=O)N(C)C)N(C)C(=O)[C@H](C2CCCC2)N(C)C(=O)C2(CCC2)NC(=O)[C@@H]2C[C@@H](F)CN2C(=O)[C@H](CCc2cc(F)c(C(F)(F)F)c(F)c2)NC(=O)CN(C)C(=O)[C@H](Cc2ccc(C(F)(F)F)cc2)N2CC/C=C\C[C@@H](C2=O)N(C)C(=O)CN(C)C1=O [PP1131, (2S,8S,12R,14S,20S,23S,27S,30S,36S,38Z)-20-cyclopentyl-8-[2-[3,5-difluoro-4-(trifluoromethyl)phenyl]ethyl]-27-ethyl-12-fluoro-N,N,4,19,22,26,32,35-octamethyl-30-[(1S)-1-methylpropyl]-3,6,9,15,18,21,25,28,31,34,42-undecaoxo-2-[[4-(trifluoromethyl)phenyl]methyl]spiro[1,4,7,10,16,19,22,26,29,32,35-undecazatricyclo[34.5.1.0^10,14]dotetracont-38-ene-17,1′-cyclobutane]-23-carboxamide] | B (a compound having 3 or more and less than 10 is denoted as B) | 32 | A (a compound having 10 or more and less than 20 is denoted as A) | 0.025
3 | CC[C@H](C)[C@@H]1NC(=O)[C@H](CC)N(C)C(=O)C[C@@H](C(=O)N(C)C)N(C)C(=O)[C@H](C2CCCC2)N(C)C(=O)C2(CCC2)NC(=O)[C@@H]2C[C@H](F)CN2C(=O)[C@H](CCc2cc(F)c(C(F)(F)F)c(F)c2)NC(=O)CN(C)C(=O)[C@H](Cc2ccc(C(F)(F)F)cc2)N2CC/C=C\C[C@@H](C2=O)N(C)C(=O)CN(C)C1=O [PP1132, (2S,8S,12S,14S,20S,23S,27S,30S,36S,38Z)-20-cyclopentyl-8-[2-[3,5-difluoro-4-(trifluoromethyl)phenyl]ethyl]-27-ethyl-12-fluoro-N,N,4,19,22,26,32,35-octamethyl-30-[(1S)-1-methylpropyl]-3,6,9,15,18,21,25,28,31,34,42-undecaoxo-2-[[4-(trifluoromethyl)phenyl]methyl]spiro[1,4,7,10,16,19,22,26,29,32,35-undecazatricyclo[34.5.1.0^10,14]dotetracont-38-ene-17,1′-cyclobutane]-23-carboxamide] | B (a compound having 3 or more and less than 10 is denoted as B) | 86.8 | A (a compound having 10 or more and less than 20 is denoted as A) | 0.066
4 | CC[C@H](C)[C@@H]1NC(=O)[C@H](CC)N(C)C(=O)C[C@@H](C(=O)N(C)C)N(C)C(=O)[C@H](C2CCCC2)N(C)C(=O)C2(CCC2)NC(=O)[C@@H]2C[C@@H](C(F)(F)F)CN2C(=O)[C@H](CCc2cc(F)c(C(F)(F)F)c(F)c2)NC(=O)CN(C)C(=O)[C@H](Cc2ccc(C(F)(F)F)cc2)N2CC/C=C\C[C@@H](C2=O)N(C)C(=O)CN(C)C1=O [PP1133, (2S,8S,12R,14S,20S,23S,27S,30S,36S,38Z)-20-cyclopentyl-8-[2-[3,5-difluoro-4-(trifluoromethyl)phenyl]ethyl]-27-ethyl-N,N,4,19,22,26,32,35-octamethyl-30-[(1S)-1-methylpropyl]-3,6,9,15,18,21,25,28,31,34,42-undecaoxo-12-(trifluoromethyl)-2-[[4-(trifluoromethyl)phenyl]methyl]spiro[1,4,7,10,16,19,22,26,29,32,35-undecazatricyclo[34.5.1.0^10,14]dotetracont-38-ene-17,1′-cyclobutane]-23-carboxamide] | A (a compound having 10 or more and less than 20 is denoted as A) | 16.5 | A (a compound having 10 or more and less than 20 is denoted as A) | 0.05
5 | CC[C@H](C)[C@@H]1NC(=O)[C@H](CC)N(C)C(=O)C[C@@H](C(=O)N(C)C)N(C)C(=O)[C@H](C2CCCC2)N(C)C(=O)C2(CCC2)NC(=O)[C@@H]2C[C@H](C)CN2C(=O)[C@H](CCc2cc(F)c(C(F)(F)F)c(F)c2)NC(=O)CN(C)C(=O)[C@H](Cc2ccc(C(F)(F)F)cc2)N2CC/C=C\C[C@@H](C2=O)N(C)C(=O)CN(C)C1=O [PP1134, (2S,8S,12S,14S,20S,23S,27S,30S,36S,38Z)-20-cyclopentyl-8-[2-[3,5-difluoro-4-(trifluoromethyl)phenyl]ethyl]-27-ethyl-N,N,4,12,19,22,26,32,35-nonamethyl-30-[(1S)-1-methylpropyl]-3,6,9,15,18,21,25,28,31,34,42-undecaoxo-2-[[4-(trifluoromethyl)phenyl]methyl]spiro[1,4,7,10,16,19,22,26,29,32,35-undecazatricyclo[34.5.1.0^10,14]dotetracont-38-ene-17,1′-cyclobutane]-23-carboxamide] | B (a compound having 3 or more and less than 10 is denoted as B) | 20 | A (a compound having 10 or more and less than 20 is denoted as A) | 0.06
6 | CC[C@H](C)[C@@H]1NC(=O)[C@H](CC)N(C)C(=O)C[C@@H](C(=O)N(C)C)N(C)C(=O)[C@H](C2CCCC2)N(C)C(=O)C2(CCC2)NC(=O)[C@@H]2CCCN2C(=O)[C@H](CCc2cc(F)c(C(F)(F)F)c(F)c2)NC(=O)CN(C)C(=O)[C@H](Cc2ccc(C(F)(F)F)cc2)N2CC/C=C\C[C@@H](C2=O)N(C)C(=O)CN(C)C1=O [PP1135, (2S,8S,14S,20S,23S,27S,30S,36S,38Z)-20-cyclopentyl-8-[2-[3,5-difluoro-4-(trifluoromethyl)phenyl]ethyl]-27-ethyl-N,N,4,19,22,26,32,35-octamethyl-30-[(1S)-1-methylpropyl]-3,6,9,15,18,21,25,28,31,34,42-undecaoxo-2-[[4-(trifluoromethyl)phenyl]methyl]spiro[1,4,7,10,16,19,22,26,29,32,35-undecazatricyclo[34.5.1.0^10,14]dotetracont-38-ene-17,1′-cyclobutane]-23-carboxamide] | A (a compound having 10 or more and less than 20 is denoted as A) | 43.9 | A (a compound having 10 or more and less than 20 is denoted as A) | 0.094
7 | CC[C@H](C)[C@@H]1NC(=O)[C@H](CC)N(C)C(=O)C[C@@H](C(=O)N(C)C)N(C)C(=O)[C@H](C2CCCC2)N(C)C(=O)C2(CCC2)NC(=O)[C@@H]2CCCCN2C(=O)[C@H](CCc2cc(F)c(C(F)(F)F)c(F)c2)NC(=O)CN(C)C(=O)[C@H](Cc2ccc(C(F)(F)F)cc2)N2CC/C=C\C[C@@H](C2=O)N(C)C(=O)CN(C)C1=O [PP1136, (2S,8S,15S,21S,24S,28S,31S,37S,39Z)-21-cyclopentyl-8-[2-[3,5-difluoro-4-(trifluoromethyl)phenyl]ethyl]-28-ethyl-N,N,4,20,23,27,33,36-octamethyl-31-[(1S)-1-methylpropyl]-3,6,9,16,19,22,26,29,32,35,43-undecaoxo-2-[[4-(trifluoromethyl)phenyl]methyl]spiro[1,4,7,10,17,20,23,27,30,33,36-undecazatricyclo[35.5.1.0^10,1^5]tritetracont-39-ene-18,1′-cyclobutane]-24-carboxamide] | A (a compound having 10 or more and less than 20 is denoted as A) | 193 | A (a compound having 10 or more and less than 20 is denoted as A) | 0.14
8 | CC[C@H](C)[C@@H]1NC(=O)[C@H](CC)N(C)C(=O)C[C@@H](C(=O)N(C)C)N(C)C(=O)[C@H](C2CCCC2)N(C)C(=O)C2(CCC2)NC(=O)[C@@H]2CSCCN2C(=O)[C@H](CCc2cc(F)c(C(F)(F)F)c(F)c2)NC(=O)CN(C)C(=O)[C@H](Cc2ccc(C(F)(F)F)cc2)N2CC/C=C\C[C@@H](C2=O)N(C)C(=O)CN(C)C1=O [PP1137, (2S,8S,15R,21S,24S,28S,31S,37S,39Z)-21-cyclopentyl-8-[2-[3,5-difluoro-4-(trifluoromethyl)phenyl]ethyl]-28-ethyl-N,N,4,20,23,27,33,36-octamethyl-31-[(1S)-1-methylpropyl]-3,6,9,16,19,22,26,29,32,35,43-undecaoxo-2-[[4-(trifluoromethyl)phenyl]methyl]spiro[13-thia-1,4,7,10,17,20,23,27,30,33,36-undecazatricyclo[35.5.1.0^10,1^5]tritetracont-39-ene-18,1′-cyclobutane]-24-carboxamide] | A (a compound having 10 or more and less than 20 is denoted as A) | 142 | AA (a compound having 20 or more is denoted as AA) | 0.11
